Data: patent publication US9353079B2, “Solid forms of an alpha, omega di-substituted dihydroxy cyclopentyl compound and methods for the preparation and use thereof” (Allergan, Inc., priority 2013, dated 2016)

Experiment: Solid-state stability of crystalline forms on storage, XRPD compared before and after
Format: physicochemical
Procedure: X-Ray powder diffraction patterns (XRPD) were obtained for the crystalline form described herein under the following conditions: • Equipment: Rigaku Smart-Lab • Scan range: 2 to 40° (2θ) • Scan speed: 3° (2θ) per minute • Step width: 0.02° (2θ) • X-ray information: Cu Kα, λ=1.54 Å, 40 kV/44 mA
Approximately 5-10 mg of the sample was gently applied on a low background Si holder and subjected to XRPD scanning.
In addition, another sample of 5-10 milligrams of crystalline Form A was maintained at a temperature of 22±2° C. and relative humidity of 59% for 144 hours.
A sample of 5-10 milligrams of crystalline Form B was maintained at a temperature of 22±2° C. and relative humidity of 59% for 120 hours.
In addition, another sample of 10-50 grams of crystalline Form B was maintained at a temperature of 22±2° C. and relative humidity of 0% for 120 hours.
In addition, a similar sample of crystalline Form B was maintained at a temperature of 40° C. for 16 hours.

change of XRPD pattern / crystal form after storage (22±2° C., relative humidity 59%, 120 hours)	change of XRPD pattern / crystal form after storage (22±2° C., relative humidity 0%, 144 hours)	change of XRPD pattern / crystal form after storage (40° C., 25 minutes)	SMILES	change of XRPD pattern / crystal form after storage (22±2° C., relative humidity 0%, 120 hours)	change of XRPD pattern / crystal form after storage (40° C., 16 hours)	change of XRPD pattern / crystal form after storage (22±2° C., relative humidity 59%, 144 hours)
remained substantially unchanged			NC(=O)CCC/C=C\C[C@@H]1[C@@H](/C=C/[C@@H](O)CCc2cc(Cl)sc2Cl)[C@H](O)C[C@@H]1O [Form B, 7-[3α,5α-dihydroxy-2-(3α-hydroxy-5-(3-(2,5-dichloro)thienyl)-1E-pentenyl)cyclopentyl]-5Z-heptenamide]	poorly-crystalline mixture of Forms A and B	a substantial portion of crystalline Form B had converted to the amorphous form	
	remained substantially unchanged	lack of significant change	NC(=O)CCC/C=C\C[C@@H]1[C@@H](/C=C/[C@@H](O)CCc2cc(Cl)sc2Cl)[C@H](O)C[C@@H]1O [Form A, 7-[3α,5α-dihydroxy-2-(3α-hydroxy-5-(3-(2,5-dichloro)thienyl)-1E-pentenyl)cyclopentyl]-5Z-heptenamide]			a substantial portion of crystalline Form A had converted to crystalline Form B
